Legend:
Assay type in all cases: cell-based
[1] = test system: TNFα; experiment: TNFα mRNA level by RT-PCR in TNFα-induced mouse splenocytes; conditions: TNFα 20 nM, peptide at 5 μM and 50 μM, 3 hours, compared to group not treated with the peptide
Procedure: In order to further confirm the anti-inflammatory effect of the peptide treatment of the present invention in addition to the results of Experimental Example <3-1>, inflammation was induced by treating mouse splenocytes with TNFα, and the expression levels of inflammatory cytokines TNFα and IL-1β, and Cox2, which is an inflammation-inducing marker, genes were confirmed. In order to induce inflammation, the cells were treated with cytokine TNFα, and since TNFα corresponds to a signaling protein associated with inflammation, IL-1β corresponds to a cytokine that promotes inflammation, and Cox2 is a protein associated with inflammation, the degree of inflammation can be confirmed by measuring the expression levels of TNFα, Cox2, and IL-1β genes.
Mouse splenocytes were dispensed into a 24-well plate at a concentration of 1× 10^7 cells/well and cultured until the next day. The medium was replaced with serum-free medium, and after 3 hours, the cells were treated with TNFα and the peptide of the present invention and then cultured for another 3 hours. In order to induce inflammation, the cells were treated with TNFα at 20 nM, and the peptide at 5 μM and 50 μM, respectively. […] After quantifying the amount of isolated RNA, cDNA was synthesized using a cDNA synthesis kit (Intron, Korea), PCR was performed using a PCR premix (Intron, Korea) and primers for TNFα, Cox2, and IL-1B. […]

[2] = test system: TNFα; experiment: TNFα mRNA level by RT-PCR in LPS-induced mouse splenocytes; conditions: LPS 2 μg/mL, peptide at 5 μM and 50 μM, 24 hours, compared to group not treated with the peptide
Procedure: Inflammation was induced in mouse splenocytes, and the expression levels of TNFα, and IL-6 genes, which is the inflammatory cytokines were confirmed. In order to induce inflammation, the cells were treated with LPS, an inflammation-inducing antigen, and since TNFα corresponds to a signaling protein associated with inflammation, and IL-6 corresponds to a cytokine that promotes inflammation, the degree of inflammation can be confirmed by measuring the expression levels of TNFα and IL-6 genes.
Mouse splenocytes were dispensed into a 24-well plate at a concentration of 1×10^7 cells/well and cultured until the next day. The medium was replaced with serum-free medium, and after 3 hours, the cells were treated with LPS and the peptide of the present invention and then cultured again for another 24 hours. In order to induce inflammation, the cells were treated with LPS at 2 μg/mL, and the peptide at […] and 50 μM, respectively. […] After quantifying the amount of isolated RNA, cDNA was synthesized using a cDNA synthesis kit (Intron, Korea), PCR was performed using a PCR premix (Intron, Korea) and primers for TNFα, and IL-6. […]

[3] = test system: IL-1β; experiment: IL-1β secretion by ELISA in mouse splenocytes induced with LPS, TGFβ and IL-23; conditions: LPS 2 μg/mL, TGFβ 20 ng/ml, IL-23 20 ng/mL, 24 hours
Description: Inflammation was induced by treating mouse splenocytes with LPS, which is an inflammation-inducing antigen, and TGFβ and IL-23, which are inflammatory cytokines, and the secretion amounts of the inflammatory cytokines IL-17, IL-1β, and IFNγ were confirmed. The descriptions of IL-17, IL-1B, and IFNγ are the same as above.
Mouse splenocytes were dispensed into a 24-well plate at a concentration of 1×10^7 cells/well and cultured until the next day. The medium was replaced with serum-free medium, and after 4 hours, the cells were treated with LPS, TGFβ, and IL-23 and the peptide of the present invention and then cultured again for another 24 hours. In order to induce inflammation, the cells were treated with LPS at 2 μg/mL, TGFβ at 20 ng/ml, IL-23 at 20 ng/mL, and the peptide at 5 μM and 50 μM, respectively. The mouse splenocytes in the group in which inflammation was not induced due to untreatment with LPS, TGFβ, and IL-23 (NON); the negative control group in which the cells were treated with LPS, TGFβ, and IL-23 but not treated with the peptide (NC); and the group in which the cells were treated with LPS, TGFβ, and IL-23 along with the peptide of the present invention at the same concentration as above, respectively, were reacted as described above and the cell cultures were recovered. […]

TWNS [peptide of the present invention]
decreased: mRNA expression level of TNFα [1] | mRNA expression level of TNFα [2] | secretion amount of IL-1β ([3]; peptide at 5 μM) | secretion amount of IL-1β ([3]; peptide at 50 μM)

— US20250340590A1, “PEPTIDE HAVING ANTI-INFLAMMATORY ACTIVITY AND USE THEREOF” (CAREGEN CO., LTD., priority 2021, published 2025)
